# Marks after values point to notes of the source that are not given here.
# Tests used:
# [1] = test system: M. bovis; type: in vivo, mice; details: Group 8; INH 5 mg/kg sc daily
# [2] = test system: YAC-1 target cells; experiment: NK cytotoxic activity of splenocytes on YAC-1 target cells; type: in vivo, C3H/HeJ mice; details: for Cytotoxicity Change (%): vs saline
# [3] = test system: Rauscher MuLV; experiment: Anti-viral response to Rauscher MuLV; type: in vivo, mice; details: days −2, −1, 0, +1, and +2; for Viremia: ± SEM
# Excerpt: Innate mechanisms of anti-viral immunity are important to survival of the host. The Rauscher murine leukemia virus (MuLV) is an example of a highly virulent animal retrovirus infection, first isolated and characterized by Dr. Rauscher from BALB/c mouse tissues in 1962. […] The virus employed in present GLP/blinded study was a murine leukemia complex known to induce progressive erythroleukemia in mice (i.e., Rauscher MuLV and replication-defective Rauscher spleen focus-forming virus). Disease manifested within about 6 days with death by about 50 days. Measurements of splenomegaly, blood reverse transcriptase, virus plaque assays (i.e., XC-plaque assay for viremia using SC-1 host cells) and serum anti-viral antibody titers were used to assess infection. Spleens achieved about 2.0 grams in weight within 21 days of infection, as compared with a normal spleen weights in an uninfected animals of about 0.1 gram.
# Mice were inoculated with Rauscher MuLV complex (0.1 ml/7.8×10^4 PFU/mL) on day 0 and sacrificed on day 21. Test groups were comprised of 10 mice and control groups 6 mice. Control articles included saline and AZT (in drinking water at about 1.25 mg/mouse/day≈63 mg/kg/day/mouse). […] A non-infected group of mice was also sacrificed on day 21 to provide normal control values.
# In EXAMPLE 38, SC-1 cells were originally derived from murine embryos, and XC cells (a rat tumor cell line induced by Rous Sarcoma Virus) were obtained from the ATCC in Rockville, Md.
# [4] = Survival in LPS-induced endotoxic shock; type: in vivo, CBA mice
# Procedure: The mortality results were evaluated using the Litchfield-Wilcoxon's probit analysis method and a computer program written to conduct probit analyses.
compound,measurement,setting,value
"NNC(=O)c1ccncc1 [Isoniazid, reference compound]",Survival Mean,[1],57 ± 2
Glu-Trp,% Cytotoxicity (mean +/− S.D.),[2]; dose 1 (μg/kg ip daily 7 days),10.7 ± 14%
same,Cytotoxicity Change (%),[2]; dose 1,25 ↑ %
same,% Cytotoxicity (mean +/− S.D.),[2]; dose 10 (μg/kg ip daily 7 days),14.3 ± 1.7%
same,Cytotoxicity Change (%),[2]; dose 10,67 ↑ %
same,% Cytotoxicity (mean +/− S.D.),[2]; dose 1000 (μg/kg ip daily 7 days),14.9 ± 2.9%
same,Cytotoxicity Change (%),[2]; dose 1000,75* ↑ %
same,Reduction Splenomegaly (%),[3]; 0.002 mg/kg,−9%
same,Spleen Weight (mean ± SD),[3]; 0.002 mg/kg,0.49 ± 0.31
same,Reduction Splenomegaly (%),[3]; 0.005 mg/kg,−3%
same,Spleen Weight (mean ± SD),[3]; 0.005 mg/kg,0.47 ± 0.29
same,Viremia,[3]; 0.005 mg/kg,3.25 ± 0.27 log10PFU/ml
same,Reduction Splenomegaly (%),[3]; 0.02 mg/kg,12%
same,Spleen Weight (mean ± SD),[3]; 0.02 mg/kg,0.42 ± 0.32
same,Reduction Splenomegaly (%),[3]; 0.05 mg/kg,30%
same,Spleen Weight (mean ± SD),[3]; 0.05 mg/kg,0.36 ± 0.11
same,Viremia,[3]; 0.05 mg/kg,2.99 ± 0.28 log10PFU/ml
same,Reduction Splenomegaly (%),[3]; 0.17 mg/kg,12%
same,Spleen Weight (mean ± SD),[3]; 0.17 mg/kg,0.42 ± 0.26
same,Reduction Splenomegaly (%),[3]; 0.5 mg/kg,−12%
same,Spleen Weight (mean ± SD),[3]; 0.5 mg/kg,0.48 ± 0.3
same,Viremia,[3]; 0.5 mg/kg,3.31 ± 0.39 log10PFU/ml
same,Reduction Splenomegaly (%),[3]; 1.75 mg/kg,3%
same,Spleen Weight (mean ± SD),[3]; 1.75 mg/kg,0.45 ± 0.39
same,Reduction Splenomegaly (%),[3]; 5 mg/kg,6%
same,Spleen Weight (mean ± SD),[3]; 5 mg/kg,0.44 ± 0.15
same,Viremia,[3]; 5 mg/kg,3.43 ± 0.368 log10PFU/ml
same,Survivors (%),"[4]; 24 hrs after LD99 LPS ip, 10 μg/kg ip daily x3 prophylactic",36%
same,Survivors,"[4]; 24 hrs after LD99 LPS ip, 10 μg/kg ip daily x3 prophylactic, 11 animals",4
same,Survivors (%),"[4]; 24 hrs after LD99 LPS ip, 100 μg/kg ip daily x3 prophylactic",80* %
same,Survivors,"[4]; 24 hrs after LD99 LPS ip, 100 μg/kg ip daily x3 prophylactic, 10 animals",8
same,Survivors (%),"[4]; 30 hrs after LD99 LPS ip, 10 μg/kg ip daily x3 prophylactic",9%
same,Survivors,"[4]; 30 hrs after LD99 LPS ip, 10 μg/kg ip daily x3 prophylactic, 11 animals",1
same,Survivors (%),"[4]; 30 hrs after LD99 LPS ip, 100 μg/kg ip daily x3 prophylactic",40* %
same,Survivors,"[4]; 30 hrs after LD99 LPS ip, 100 μg/kg ip daily x3 prophylactic, 10 animals",4
